From patent EP1143970B1, “PYRIDINE COMPOUNDS, USE AND PREPARATION THEREOF” (priority 1999, dated 2000)
Read-outs that look alike come from different tables or passages of the source. Marks after values point to notes of the source that are not given here.

Experiments:
human MX-1 mammary tumor = assay: In vivo antitumor activity against i.c.-implanted human MX-1 mammary tumor xenograft; parameters: species or system mouse; conditions: for Median % ILS: I.C.-implanted MX-1, optimal doses (LD10 or less), schedule QD1-5, I.P., based on dying mice only
From the text: The antitumor activity data of the acyl derivatives of DM-PEN vs MX-1 human mammary tumor xenograft implanted s.c. or i.c. with intraperitoneal (i.p.) or oral drug treatment are shown in Table 1 below.
Table 2Comparative Activity of PEN, DM-PEN and DM-ACYL-PEN Against […] Human MX-1 Mammary Tumor at Optimal Doses (LD10 or Less) and Schedule (QD1-5) Administered I.P.

P388/0 = conditions: P388/0
Cytotoxicity in vitro = conditions: without metabolism
P388/CPA = assay: Antitumor activity against IP-implanted P388/CPA leukemia in mice; assay type: in vivo, murine; conditions: Q1D X 5 (1)
P388/L-PAM = assay: Antitumor activity against IP-implanted P388/L-PAM leukemia in mice; conditions: P388/L-PAM, Q1D X 5 (1)
P388/BCNU = assay: Antitumor activity against IP-implanted P388/BCNU leukemia in mice
[1] = rats; muscle tremors, incoordination, convulsions and reduced activity; cited from earlier work
[2] = 14C-penclomedine, tumor-bearing rats; cited from earlier work
[3] = Anti-cancer activity (test not described)
[4] = IP 60.0 MG/KG/DOSE, Q1D X 5 (1)
[5] = IP 90.0 MG/KG/DOSE, Q1D X 5 (1)
[6] = IP 135.0 MG/KG/DOSE, Q1D X 5 (1)
[7] = IP 20.0 MG/KG/DOSE, Q1D X 1 (1)
[8] = IP 30.0 MG/KG/DOSE, Q1D X 1 (1)

COc1nc(C(Cl)(Cl)Cl)c(Cl)c(OC(=O)c2ccco2)c1Cl [DM-F-PEN]
Median % ILS (human MX-1 mammary tumor): 108^c %

COc1nc(C(Cl)(Cl)Cl)c(Cl)c(OC)c1Cl [PEN, 3,5-dichloro-2,4-dimethoxy-6-(trichloromethyl)pyridine]
Median % ILS (human MX-1 mammary tumor): 88% | 50-DAY SURV./ TOTAL (P388/0; [4]): 0 / 6 | MEDIAN DAY OF DEATH (P388/0; [4]): 14.5 | 50-DAY SURV./ TOTAL (P388/0; [5]): 0 / 6 | APPROX. NET LOG10 CHANGE IN TUMOR BURDEN AT END OF Rx (P388/0; [5]): -0.6 | 50-DAY SURV./ TOTAL (P388/0; [6]): 0 / 6 | APPROX. NET LOG10 CHANGE IN TUMOR BURDEN AT END OF Rx (P388/0; [6]): -4.6 | cytotoxic agents in vitro (in words) (Cytotoxicity in vitro): inactive | 50-DAY SURV./ TOTAL (P388/CPA; IP 60.0 MG/KG/DOSE): 0 / 6 | MEDIAN DAY OF DEATH (P388/CPA; IP 60.0 MG/KG/DOSE): 10.5 | 50-DAY SURV./ TOTAL (P388/CPA; IP 90.0 MG/KG/DOSE): 0 / 6 | MEDIAN DAY OF DEATH (P388/CPA; IP 90.0 MG/KG/DOSE): 10.5 | 50-DAY SURV./ TOTAL (P388/CPA; IP 135.0 MG/KG/DOSE): 0 / 6 | MEDIAN DAY OF DEATH (P388/CPA; IP 135.0 MG/KG/DOSE): 10.5 | 50-DAY SDRV./ TOTAL (P388/L-PAM; IP 60.0 MG/KG/DOSE): 0 / 6 | 50-DAY SDRV./ TOTAL (P388/L-PAM; IP 90.0 MG/KG/DOSE): 0 / 6 | APPROX. NET LOG10 CHANGE IN TUMOR BURDEN AT END OF Rx (P388/L-PAM; IP 90.0 MG/KG/DOSE): +1.5 | 50-DAY SDRV./ TOTAL (P388/L-PAM; IP 135.0 MG/KG/DOSE): 0 / 6 | APPROX. NET LOG10 CHANGE IN TUMOR BURDEN AT END OF Rx (P388/L-PAM; IP 135.0 MG/KG/DOSE): +1.5 | 50-DAY SURV./ TOTAL (P388/BCNU; [4]): 0 / 6 | 50-DAY SURV./ TOTAL (P388/BCNU; [5]): 0 / 6 | 50-DAY SURV./ TOTAL (P388/BCNU; [6]): 0 / 6 | MEDIAN DAY OF DEATH (P388/BCNU; [6]): 11.5 | neurotoxicity [1]: Dose related neurotoxicity | radioactive species in the brain [2]: predominant radioactive species in the brain was penclomedine

CCOc1nc(C(Cl)(Cl)Cl)c(Cl)c(OCC)c1Cl [3,5-dichloro-4,6-diethoxy-2-(trichloromethyl)pyridine]
anti-cancer activity (in words) [3]: show active anti-cancer activity

CCCCCCCC(=O)Oc1c(Cl)c(OC)nc(C(Cl)(Cl)Cl)c1Cl [DM-O-PEN]
Median % ILS (human MX-1 mammary tumor): 121^b %

COCC(=O)Oc1c(Cl)c(OC)nc(C(Cl)(Cl)Cl)c1Cl [DM-MA-PEN]
Median % ILS (human MX-1 mammary tumor): 126^a % | Median % ILS (dying mice only) (human MX-1 mammary tumor; ic MX-1, IP 90 mg/kg/dose, Days 1-5): +126%

O=NN(CCCl)C(=O)NCCCl [BCNU, carmustine]
50-DAY SURV./ TOTAL (P388/0; [7]): 3 / 6 | % ILS (P388/0; [7]): +145% | APPROX. NET LOG10 CHANGE IN TUMOR BURDEN AT END OF Rx (P388/0; [7]): ca-6.8 | 50-DAY SURV./ TOTAL (P388/0; [8]): 6 / 6 | 50-DAY SURV./ TOTAL (P388/BCNU; [7]): 0 / 6 | 50-DAY SURV./ TOTAL (P388/BCNU; [8]): 0 / 6 | MEDIAN DAY OF DEATH (P388/BCNU; [8]): 6.5

COc1nc(C(Cl)(Cl)Cl)c(Cl)c(OC(=O)c2cccs2)c1Cl [DM-TC-PEN]
Median % ILS (human MX-1 mammary tumor): 100^d %
